Measurements as given in paper PMC8748874, “Structures of the human peroxisomal fatty acid transporter ABCD1 in a lipid environment” (Communications Biology, 2022).

Assays:
Assay in all cases: molybdate-based colorimetric ATPase assay
Format in all cases: biochemical
ABCD1 (ALDP) [1] = molecular target: T1, ABCD1 (ALDP) (Homo sapiens, UniProt P33897); conditions: 10 mM MgCl2, pH 7.5, 37 °C
T1 construct: full length, codon-optimized synthetic gene; C-terminal eYFP-Rho1D4 tag cut off with 3C protease; HEK293 Flp-In TREX; homodimer; in DDM/CHS, liposomes or MSP1D1 nanodiscs
T1 sequence (P33897 whole entry): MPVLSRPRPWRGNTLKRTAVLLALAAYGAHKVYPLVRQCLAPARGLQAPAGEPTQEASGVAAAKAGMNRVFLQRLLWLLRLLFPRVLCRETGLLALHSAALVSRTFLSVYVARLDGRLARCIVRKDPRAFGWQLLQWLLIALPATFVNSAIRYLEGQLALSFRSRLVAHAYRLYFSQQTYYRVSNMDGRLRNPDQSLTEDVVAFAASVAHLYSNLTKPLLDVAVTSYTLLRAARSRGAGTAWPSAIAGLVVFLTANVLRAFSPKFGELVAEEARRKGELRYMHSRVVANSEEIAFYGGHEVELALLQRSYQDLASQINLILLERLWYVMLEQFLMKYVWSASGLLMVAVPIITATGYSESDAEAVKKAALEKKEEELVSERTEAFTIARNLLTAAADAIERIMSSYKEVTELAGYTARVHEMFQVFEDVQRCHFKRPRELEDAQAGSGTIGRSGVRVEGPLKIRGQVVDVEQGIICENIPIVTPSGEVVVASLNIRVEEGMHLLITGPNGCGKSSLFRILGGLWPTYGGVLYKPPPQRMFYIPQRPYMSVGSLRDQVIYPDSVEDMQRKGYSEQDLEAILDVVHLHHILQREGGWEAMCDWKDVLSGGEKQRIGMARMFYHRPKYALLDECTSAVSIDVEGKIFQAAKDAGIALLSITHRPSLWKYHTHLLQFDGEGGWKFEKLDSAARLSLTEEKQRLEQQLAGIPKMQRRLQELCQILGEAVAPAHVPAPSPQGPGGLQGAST

ABCD1 (ALDP) [2] = molecular target: T1, ABCD1 (ALDP); conditions: DDM/CHS detergent; 5 mM ATP, 10 mM MgCl2, pH 7.5, 37 °C
ABCD1 (ALDP) [3] = molecular target: T1, ABCD1 (ALDP); conditions: DDM/CHS detergent; 5 mM ATP, 10 mM MgCl2, pH 7.5, 37 °C; remark: listed apart in the source
ABCD1 (ALDP) [4] = molecular target: T1, ABCD1 (ALDP); conditions: DDM/CHS detergent; 5 mM ATP, 10 mM MgCl2, pH 7.5, 37 °C; with C24:0-CoA; suggested competition for same site; no stimulation alone

Q: `Nc1ncnc2c1ncn2[C@@H]1O[C@H](COP(=O)(O)OP(=O)(O)OP(O)(O)=S)[C@@H](O)[C@H]1O` [ATPγS] was tested. Which “inhibition of ATPase activity at 5 mM” value (ABCD1 (ALDP) [1]) did it give?
A: sensitive to inhibition by sodium orthovanadate (VO4) or the non-hydrolysable ATP analog ATPγS

Q: How did the ATPase rate stimulation (ABCD1 (ALDP) [2]) turn out when `CCCCCCCC/C=C\CCCCCCCC(=O)SCCNC(=O)CCNC(=O)[C@H](O)C(C)(C)COP(=O)(O)OP(=O)(O)OC[C@H]1O[C@@H](n2cnc3c(N)ncnc32)[C@H](O)[C@@H]1OP(=O)(O)O` [C18:1-CoA] was run?
A: we also observed ATPase rate stimulation by C18:1-CoA

Q: `CCCCCCCCCCCCCCCCCCCCCCCC(=O)SCCNC(=O)CCNC(=O)[C@H](O)C(C)(C)COP(=O)(O)OP(=O)(O)OC[C@H]1O[C@@H](n2cnc3c(N)ncnc32)[C@H](O)[C@@H]1OP(=O)(O)O` [C24:0-CoA] was tested. Which “ATPase rate stimulation at 0.1 and 1 mM” value (ABCD1 (ALDP) [3]) did it give?
A: we observed ATPase rate stimulation for C24:0-CoA and C26:0-CoA

Q: Which “ATPase rate stimulation at 0.1 and 1 mM” value (ABCD1 (ALDP) [3]) does the source give for `CCCCCCCCCCCCCCCCCCCCCCCCCC(=O)SCCNC(=O)CCNC(=O)[C@H](O)C(C)(C)COP(=O)(O)OP(=O)(O)OC[C@H]1O[C@@H](n2cnc3c(N)ncnc32)[C@H](O)[C@@H]1OP(=O)(O)O` [C26:0-CoA] here?
A: we observed ATPase rate stimulation for C24:0-CoA and C26:0-CoA

Q: For `CC(=O)SCCNC(=O)CCNC(=O)[C@H](O)C(C)(C)COP(=O)(O)OP(=O)(O)OC[C@H]1O[C@@H](n2cnc3c(N)ncnc32)[C@H](O)[C@@H]1OP(=O)(O)O` [acetyl-CoA], which “decrease of C24:0-CoA stimulated ATPase” value (ABCD1 (ALDP) [4]) is on record?
A: it can partially inhibit ATPase stimulation by C24:0-CoA

Q: How did the “inhibition of ATPase activity at 5 mM” value (ABCD1 (ALDP) [1]) turn out when `[O]=[V]([OH])([OH])[OH]` [sodium orthovanadate] was run?
A: ATP hydrolysis was sensitive to inhibition by sodium orthovanadate (VO4)
